Assay results as given in patent publication US20130101666A1, “LIPOSOME INCLUDING ELASTIN-LIKE POLYPEPTIDE CONJUGATED TO MOIETY CONTAINING HYDROPHOBIC GROUP, CHEMOSENSITIZER AND ANTICANCER AGENT AND USE THEREOF” (SAMSUNG ELECTRONICS CO., LTD., priority 2011, published 2013).

Columns and labels:
[1] = Amounts of drugs entrapped in liposomes by loading method (HPLC); assay type: physicochemical
Protocol: Two types of drugs, i.e., doxorubicin and verapamil, were loaded in the liposome. The loading process was performed using an ammonium sulfate gradient method (J. Control. Release 2009, 139, 73-80) or a pH-gradient method (Biochimica et Biophysica Acta 1985, 816, 294-302). In the loading process by the ammonium sulfate gradient method, a drug was added to the liposome solution formed of liposomes with 250 mM or 150 mM of ammonium sulfate inside and 25 mM of Tris-HCl buffer outside. The loading process was performed at a temperature of 37° C. for 60 minutes. In the loading process by the pH-gradient method, a drug was added to the liposome solution formed of liposomes with 300 mM of citrate buffer (pH 4.0) inside and 20 mM of HEPES buffer (150 mM NaCl, pH 7.4) outside. The loading process was performed at a temperature of 37° C. for 60 minutes.
The prepared liposome solution was passed through PD-10 (GE Healthcare) desalting column by flowing physiological saline therethrough to remove unentrapped drug.
Doxorubicin and verapamil entrapped in the liposomes were analyzed by high performance liquid chromatography (HPLC).
The liposomes co-encapsulating certain amounts of doxorubicin and verapamil were diluted and dissolved in dimethylsulfoxide (DMSO) and then introduced into a HPLC column. The analysis by HPLC was performed by eluting the drugs using KH2PO4/MeCN as an eluent and measuring absorbance thereof at 280 nm.
In the loading process, initial concentrations of doxorubicin and verapamil were 500 μg and 250 μg, respectively, based on 1 mL of the liposome solution.

[2] = tested on: NCI/ADR-RES cells; assay: Viability of NCI/ADR-RES cells cultured in the presence of doxorubicin (WST assay); assay type: cell-based; details: Homo sapiens, 20 ug/mL doxorubicin, 37° C. for 2 hours, fresh media, 2 days, FIG. 1, read-out: NCI/ADR-RES cells survived (viability)
Protocol: Tumor cells having a resistance against doxorubicin, i.e., NCI/ADR-RES cells, were cultured in the presence of doxorubicin and the viability of the cells was evaluated. NCI/ADR-RES cells are tumor cells derived from OVCAR-8.
NCI/ADR-RES cells were incubated in minimum essential media (MEM) containing various concentrations of doxorubicin (0.1, 0.5, 1.0, 2.5, 5.0, 10 or 20 ug/mL), 10 volume % fetal bovine serum (FBS), and 1 wt % penicillin-streptomycin (PS) at 37° C. for 2 hours. After the MEM was replaced with fresh media, the cells were incubated at 37° C. for 2 days. The viability of the cells was evaluated by water soluble tetrazolium (WST) assay. FIG. 1 is a graph showing the viability of NCI/ADR-RES cells when being cultured in the presence of doxorubicin.

[3] = tested on: NCI/ADR-RES cells; details: 45° C. for 10 minutes; 10 ug doxorubicin/mL (liposome: +5 ug verapamil/mL); FIG. 7A/7B
Protocol: (§1) In addition, cytotoxicity of the liposome with doxorubicin and verapamil entrapped therein against NCI/ADR-RES cells was confirmed. […] 50% based on the weight of doxorubicin of verapamil, was contained in the liposome. […] In this experiment, NCI/ADR-RES cells were incubated in each of a MEM containing free doxorubicin and a MEM containing the liposome with doxorubicin and verapamil entrapped therein, 10 volume % FBS, and 1 wt % PS at 37° C. for 48 hours. In particular, NCI/ADR-RES cells (5.0×10^4 cells) were cultured in MEM containing 10% (v/v) FBS and 1% penicillin/streptomycin in a well of the 24-well plate for 48 hours. The cultured NCI/ADR-RES cells were treated with the liposomes containing doxorubicin and verapamil at a variety of concentrations, immediately placed in a thermoshaker, and then incubated at 37° C. for 10 minutes. […] Thereafter, the NCI/ADR-RES cells were cultured at 37° C. for 48 hours, and the viability of the NCI/ADR-RES cells was measured using CCK-8 assay kit (Dojindo) by WST (water soluble tetrazolium) assay.
(§2) NCI/ADR-RES cells (5.0×10^4 cells) were cultured in MEM containing 10% (v/v) FBS and 1% penicillin/streptomycin in a well of the 24-well plate for 48 hours. […] Thereafter, the NCI/ADR-RES cells were cultured at 37° C. for 46 hours, and the viability of the NCI/ADR-RES cells was measured using CCK-8 assay kit (Dojindo) by WST assay. […]

[4] = tested on: NCI/ADR-RES cells; assay: cells; details: Homo sapiens, 10 min, read-out: cell viability
Protocol: as §1, §2

[5] = ammonium sulfate gradient method, 150 mM ammonium sulfate (inside), 25 mM Tris HCl buffer (outside), initial doxorubicin 500 μg, verapamil 250 μg per 1 mL

With `COc1ccc(CCN(C)CCCC(C#N)(c2ccc(OC)c(OC)c2)C(C)C)cc1OC` (racemic) [Verapamil, (RS)-2-(3,4-dimethoxyphenyl)-5-{[2-(3,4-dimethoxyphenyl)ethyl]-(methyl)amino}-2-prop-2-ylpentanenitrile] the “amount of entrapped verapamil” value [1, 5] was 1.4 µg/mL.

In the case of `COc1cccc2c1C(=O)c1c(O)c3c(c(O)c1C2=O)C[C@@](O)(C(=O)CO)C[C@@H]3O[C@H]1C[C@H](N)[C@H](O)[C@H](C)O1` [Doxorubicin, doxorubicin], the viability at 20 µg/mL [2] is reported as greater than 70%, the “amount of entrapped doxorubicin” value [1, 5] is reported as 36.5 µg/mL and the “amount of entrapped doxorubicin” value ([1]; ammonium sulfate gradient method, 250 mM ammonium sulfate (inside), 25 mM Tris HCl buffer (outside), initial doxorubicin 500 μg, verapamil 250 μg per 1 mL) is reported as 404 µg/mL. For the same compound, the “amount of entrapped doxorubicin” value ([1]; pH-gradient method, 300 mM citrate buffer (pH 4.0) (inside), 20 mM HEPES buffer (150 mM NaCl, pH 7.4) (outside)) was 42 µg/mL, the cell viability [3] was “about 70%” and the viability at 20 µg/mL [4] was 50%.
